Where no end group is shown, it is not given here.
Tested on: HRP-labeled IgG
Assay: PEI-PEG-Peptide antibody binding and free peptide competition (ELISA)
Conditions: peptide 0 added after antibody, lowering competition (FIG. 1C)
Experimental: PPP0 (Pei-PEG-Peptide0) was diluted into the coating buffer (1×TBS, pH7.2) (final concentration: 30 μg/ml) and immediately coated 96-well microplate with 100 µl per well of the diluted PPP0 solution. The plates were sealed and incubated overnight at room temperature.
Wells were aspirated and washed with 300 µl of washing buffer (1×TBS containing 0.1% Tween 20, pH 7.4). The procedure was repeated two more times for a total of three washes
In the next step plates were blocked by adding 300 µl 1% BSA in TBS and incubating for two hours.
[…] Next, 50 µl of HRP-labeled IgG (˜3 ug/ml in binding buffer) was added to each of the wells. The plate was shaken on a horizontal microplate shaker at 500±50 rpm for 10 rain and then incubate at 37° C. for 2 hours. After incubation, wells were washed 5 times with washing buffer to remove the competitors and HRP-IgG.
150 µl per well of freshly prepared substrate solution was added and incubated for 25-30 min at room temperature. The reaction was stopped by adding 70 µl of 2NH2SO4 into each well. Plate was gently tapped to ensure a thorough mixing. Optical density of each well was measured immediately, using a microplate reader set to 450 nm. Data was analyzed GraphPad Prism software.

off-rate for antibody dissociation from PPP: long
Substance: PPP: Fc binding peptide (HWRGWVC)-PEG-PEI conjugate made with SCM-PEG-Mal (3400) and PEI 2K (also: conjugated to PEG(3400)-PEI 2K via SCM-PEG-Mal, site not given here)

From patent US20110312877A1, “ENGINEERED TUNABLE NANOPARTICLES FOR DELIVERY OF THERAPEUTICS, DIAGNOSTICS, AND EXPERIMENTAL COMPOUNDS AND RELATED COMPOSITIONS FOR THERAPEUTIC USE” (APARNA BIOSCEIENCES, priority 2008, published 2011)
